This experiment has as its system neurodermatitis. Description: topical treatment of neurodermatitis compared with placebo treatment. The following applies: for healing of affected skin changes: in comparison to a placebo treatment; for effectiveness in the treatment of neurodermatitis: topic application. In kind it is in vivo.

In the case of `CC1=NC[C@H](O)[C@@H](C(=O)O)N1` [hydroxyectoine], the “healing of affected skin changes” value is “unexpectedly accelerated healing of affected skin changes” and the “effectiveness in the treatment of neurodermatitis” value is reported as “surprisingly high effectiveness”.

Consider `CC1=NCC[C@@H](C(=O)O)N1` [ectoine], for which the “healing of affected skin changes” value is “unexpectedly accelerated healing of affected skin changes” and the “effectiveness in the treatment of neurodermatitis” value is recorded as “surprisingly high effectiveness”.

These data come from patent publication US8822477B2, “Use of osmolytes obtained from extremophilic bacteria for producing medicine for the external treatment of neurodermatitis” (Bitop AG, priority 2003, dated 2014).
